Laboratory results reported in ChEMBL document CHEMBL1124866, “Synthesis and activity of NAcSerAspLysPro analogues on cellular interactions between T-cell and erythrocytes in rosette formation” (1990).
Activity calls are given as the source filed them. No cut-off for these calls is given here. Peptide text beside a SMILES is read from it.

Columns and labels:
[1] = tested on: Jurkat; assay: (§1) Activity on rosetting of jurkat T-cells with SRBC at the concentration of 10e-14 M; format: functional, Homo sapiens
[2] = tested on: Jurkat; assay: (§2) Activity on rosetting of jurkat T-cells with SRBC at the concentration of 10e-9 M; format: functional; details: Homo sapiens
[3] = tested on: Jurkat; assay: (§3) Activity on rosetting of jurkat T-cells with SRBC at the concentration of 10e-8 M; format: functional; details: Homo sapiens
[4] = tested on: Jurkat; assay: as §1; format: functional; details: Homo sapiens
[5] = tested on: Jurkat; assay: (§4) Activity on rosetting of jurkat T-cells with SRBC at the concentration of 10e-6 M; format: functional; details: Homo sapiens
[6] = tested on: Jurkat; assay: (§5) Activity on rosetting of jurkat T-cells with SRBC at the concentration of 10e-10 M; format: functional, Homo sapiens
[7] = tested on: Jurkat; assay: (§6) Activity on rosetting of jurkat T-cells with SRBC at the concentration of 10e-11 M; format: functional; details: Homo sapiens
[8] = tested on: Jurkat; assay: (§7) Activity on rosetting of jurkat T-cells with SRBC at the concentration of 10e-13 M; format: functional, Homo sapiens
[9] = tested on: Jurkat; assay: as §2; format: functional, Homo sapiens
[10] = tested on: Jurkat; assay: Activity on rosetting of jurkat T-cells with SRBC at the concentration of 10e-15 M; format: functional, Homo sapiens
[11] = tested on: Jurkat; assay: as §3; format: functional, Homo sapiens
[12] = tested on: Jurkat; assay: (§8) Activity on rosetting of jurkat T-cells with SRBC at the concentration of 10e-4 M; format: functional; details: Homo sapiens
[13] = tested on: Jurkat; assay: as §8; format: functional, Homo sapiens
[14] = tested on: Jurkat; assay: as §7; format: functional; details: Homo sapiens
[15] = tested on: Jurkat; assay: (§9) Activity on rosetting of jurkat T-cells with SRBC at the concentration of 10e-7 M; format: functional, Homo sapiens
[16] = tested on: Jurkat; assay: as §4; format: functional, Homo sapiens
[17] = tested on: Jurkat; assay: as §6; format: functional, Homo sapiens
[18] = tested on: Jurkat; assay: (§10) Activity on rosetting of jurkat T-cells with SRBC at the concentration of 10e-12 M; format: functional; details: Homo sapiens
[19] = tested on: Jurkat; assay: Activity on rosetting of jurkat T-cells with SRBC at the concentration of 0 M; format: functional, Homo sapiens
[20] = tested on: Jurkat; assay: (§11) Activity on rosetting of jurkat T-cells with SRBC at the concentration of 10e-5 M; format: functional, Homo sapiens
[21] = tested on: Jurkat; assay: as §10; format: functional, Homo sapiens
[22] = tested on: Jurkat; assay: as §5; format: functional; details: Homo sapiens
[23] = tested on: Jurkat; assay: as §9; format: functional; details: Homo sapiens
[24] = tested on: Jurkat; assay: as §11; format: functional; details: Homo sapiens
[25] = tested on: Jurkat; assay: Activity on rosetting of jurkat T-cells with SRBC at the concentration of 10e-15 M; Not significant; format: functional, cell-based; details: Homo sapiens
[26] = tested on: Jurkat; assay: Activity on rosetting of jurkat T-cells with SRBC at the concentration of 10e-10 M; Not Determined; format: functional, Homo sapiens
[27] = tested on: Jurkat; assay: Activity on rosetting of jurkat T-cells with SRBC at the concentration of 10e-12 M; Not Significant; format: functional, cell-based; details: Homo sapiens
[28] = tested on: Jurkat; assay: Activity on rosetting of jurkat T-cells with SRBC at the concentration of 10e-11 M; Not Significant; format: functional, cell-based; details: Homo sapiens

Compound	inhibition at 0.001 µM [2] [%]	inhibition at 0.01 µM [3] [%]	inhibition at 1 µM [5] [%]	No. of rosettes/100 Jurkat T cells [9]	No. of rosettes/100 Jurkat T cells [11]	inhibition at 100 µM [12] [%]	No. of rosettes/100 Jurkat T cells [13]	No. of rosettes/100 Jurkat T cells [15]	No. of rosettes/100 Jurkat T cells [16]	No. of rosettes/100 Jurkat T cells [17]	No. of rosettes/100 Jurkat T cells [19]	No. of rosettes/100 Jurkat T cells [20]	No. of rosettes/100 Jurkat T cells [21]	inhibition at 0.0001 µM [22] [%]	inhibition at 0.1 µM [23] [%]	inhibition at 10 µM [24] [%]	further results
NCCCC[C@H](NC(=O)[C@H](CC(=O)O)NC(=O)[C@@H](N)CO)C(=O)O (H-Ser-Asp-Lys-OH)	32	36	22	43	40	40	38	49	50	40	63	45	44	32	22	28	No. of rosettes/100 Jurkat T cells [1]: 55; inhibition at 10 fM [4]: 14%; No. of rosettes/100 Jurkat T cells [6]: 43; inhibition at 10 pM [7]: 36%; No. of rosettes/100 Jurkat T cells [8]: 51; No. of rosettes/100 Jurkat T cells [10]: 63; inhibition at 100 fM [14]: 19%; inhibition at 1 pM [18]: 30%; inhibition [25]: inactive
CC(=O)N[C@@H](CO)C(=O)N[C@@H](CC(=O)O)C(=O)N[C@@H](CCCCN)C(=O)O (Ac-Ser-Asp-Lys-OH)	18	23	39	51	48	44	35	45	38	62	63	37	59	10	27	40	No. of rosettes/100 Jurkat T cells [26]: 56; inhibition [27]: inactive; inhibition [28]: inactive
